Patent publication US10517889B2, “Modulators of SMAD7 expression” (Ionis Pharmaceuticals, Inc., priority 2017, dated 2019)
Strand notation (5' to 3'): a small letter for the sugar, then the base; units joined by * are phosphorothioate-linked, units joined directly phosphodiester-linked; [ ] holds rarer units or linkages, { } end groups; capitals alone tell only the bases. k = constrained ethyl (cEt); [5mC] = 5-methylcytosine; d = 2'-deoxy (DNA)

Test system: human SMAD7 mRNA
Assay: Antisense inhibition of human SMAD7 mRNA expression in Hep3B cells by 3-10-3 cEt gapmers, 10,000 nM, electroporation (Example 2)
Format: cell-based
Conditions: approximately 24 hours
Method: Antisense oligonucleotides were designed to target human SMAD7 mRNA and were tested for their effects on SMAD7 mRNA expression in vitro. The antisense oligonucleotides were tested in a series of experiments that had similar culture conditions, as described below. ION 771576, described in the studies above and which is a 5-10-5 MOE gapmer, was also included in these assays. Cultured Hep3B cells at a density of 20,000 cells per well were transfected using electroporation with 10,000 nM antisense oligonucleotide. After a treatment period of approximately 24 hours, RNA was isolated from the cells and SMAD7 mRNA levels were measured by quantitative real-time PCR. Primer probe set RTS5062 was used to measure human SMAD7 mRNA levels. SMAD7 mRNA levels were adjusted according to total RNA content, as measured by RIBOGREEN®. Results are presented as percent inhibition of SMAD7 mRNA expression, relative to untreated control cells.
The newly designed chimeric antisense oligonucleotides in the Tables below were designed as 3-10-3 cEt gapmers. The gapmers are 16 nucleosides in length, wherein the central gap segment comprises often 2′-deoxynucleosides and is flanked by wing segments on the 5′ direction and the 3′ direction comprising three nucleosides each. Each nucleoside in the 5′ wing segment and each nucleoside in the 3′ wing segment has a cEt sugar modification. The internucleoside linkages throughout each gapmer are phosphorothioate (P═S) linkages. All cytosine residues throughout each gapmer are 5-methylcytosines.
“Start site” indicates the 5′-most nucleoside to which the gapmer is targeted in the human gene sequence. “Stop site” indicates the 3′-most nucleoside to which the gapmer is targeted human gene sequence. […] Some of the oligonucleotides presented were complementary to SMAD7 mRNA sequences RefSeqNo. NM_001190821.1 (designated herein as SEQ ID NO: 3) or RefSeqNo. NM_001190822.1 (designated herein as SEQ ID NO: 4), and are presented in a separate table shown below.

[1] = Hep3B cells, electroporation with 10,000 nM antisense oligonucleotide, SMAD7 mRNA by RT-PCR (RTS5062), relative to untreated control cells
[2] = Hep3B cells, electroporation with 10,000 nM antisense oligonucleotide, primer probe set RTS5062, relative to untreated control cells
[3] = Hep3B cells, electroporation, 10,000 nM antisense oligonucleotide, RTS5062, relative to untreated control cells
[4] = Hep3B cells, electroporation with 10,000 nM antisense oligonucleotide, RTS5062, percent inhibition of SMAD7 mRNA relative to untreated control cells
[5] = SMAD7 mRNA, Hep3B cells, electroporation with 10,000 nM antisense oligonucleotide, primer probe set RTS5062, relative to untreated control cells
[6] = SMAD7 mRNA, Hep3B cells, 10,000 nM antisense oligonucleotide, electroporation, primer probe set RTS5062, relative to untreated control cells
[7] = Hep3B cells, 10,000 nM antisense oligonucleotide, electroporation, RT-PCR primer probe set RTS5062, relative to untreated control cells

Q: With “798736 (antisense kG*k[5mC]*kG*d[5mC]*d[5mC]*d[5mC]*d[5mC]*d[5mC]*dG*dG*d[5mC]*d[5mC]*dG*k[5mC]*kG*k[5mC]) [compound 798736]” as the substance, how does the “% Inhibition” value [1] read?
A: 0%

Q: Which “% Inhibition” value [2] does the source give for “799033 (k[5mC]*k[5mC]*k[5mC]*dA*dG*dG*dT*dA*d[5mC]*dT*dG*d[5mC]*d[5mC]*kT*k[5mC]*kT; antisense) [compound 799033]” here?
A: 35%

Q: With “799695 (antisense k[5mC]*k[5mC]*kA*dG*dG*dA*dA*d[5mC]*d[5mC]*dA*dG*d[5mC]*dA*k[5mC]*kT*kT) [compound 799695]” as the substance, how does the “% inhibition of SMAD7 mRNA expression” value [3] read?
A: 6%

Q: For “799331 (kA*kG*kG*dG*dT*dA*dT*dG*d[5mC]*dA*d[5mC]*dA*d[5mC]*kT*k[5mC]*kT; antisense) [compound 799331]”, which “% Inhibition” value [1] is on record?
A: 1%

Q: For “800084 (antisense kG*k[5mC]*k[5mC]*dA*dA*dA*dT*d[5mC]*dA*d[5mC]*dA*dA*d[5mC]*kA*kT*kG) [compound 800084]”, which “% Inhibition” value [1] is on record?
A: 57%

Q: For “790714 (kA*kG*k[5mC]*d[5mC]*dA*dG*dT*dT*dA*dA*dT*d[5mC]*dA*kT*kT*kA; antisense) [compound 790714]”, which “% Inhibition” value [4] is on record?
A: 11%

Q: With “799626 (kA*kG*k[5mC]*dT*dT*dG*d[5mC]*dA*d[5mC]*d[5mC]*d[5mC]*dA*dG*k[5mC]*kA*kA; antisense) [compound 799626]” as the substance, how does the “% Inhibition” value [4] read?
A: 41%

Q: For “799247 (antisense kA*k[5mC]*kG*dA*d[5mC]*dA*dG*dT*dA*dT*d[5mC]*dT*dG*kG*kG*k[5mC]) [compound 799247]”, which “% inhibition of SMAD7 mRNA expression” value [2] is on record?
A: 61%

Q: How did the “% Inhibition” value [2] turn out when “799196 (antisense kG*k[5mC]*kA*d[5mC]*dT*dA*d[5mC]*dA*dA*dT*dG*d[5mC]*dT*kA*kA*kA) [compound 799196]” was run?
A: 47%

Q: For “829806 (kG*kA*k[5mC]*dT*d[5mC]*dT*dA*dG*dT*dT*d[5mC]*dG*d[5mC]*kA*kG*kA; antisense) [compound 829806]”, which “% Inhibition” value [5] is on record?
A: 41%

Q: Which “% Inhibition” value [1] does the source give for “830179 (antisense kT*kT*kT*dA*d[5mC]*dT*dG*d[5mC]*dA*dT*dT*d[5mC]*d[5mC]*kG*kG*k[5mC]) [compound 830179]” here?
A: 51%

Q: Which “% inhibition of SMAD7 mRNA expression” value [2] does the source give for “799030 (kG*k[5mC]*kA*dG*dG*dA*dG*dA*dG*dA*d[5mC]*dA*d[5mC]*k[5mC]*kG*k[5mC]; antisense) [compound 799030]” here?
A: 52%

Q: Which “% Inhibition” value [5] does the source give for “829999 (k[5mC]*kT*kG*dT*dT*dT*dG*dT*d[5mC]*dT*dT*dA*dG*k[5mC]*kT*kG; antisense) [compound 829999]” here?
A: 46%

Q: How did the “% Inhibition” value [1] turn out when “830107 (kT*k[5mC]*kA*dT*dT*dA*dA*dG*d[5mC]*d[5mC]*d[5mC]*dG*d[5mC]*kT*k[5mC]*kT; antisense) [compound 830107]” was run?
A: 50%

Q: For “799210 (kT*kA*kA*dA*dT*dA*dA*dT*dG*dA*dT*dG*d[5mC]*kT*kT*kA; antisense) [compound 799210]”, which “% Inhibition” value [2] is on record?
A: 10%

Q: With “799923 (antisense kG*k[5mC]*k[5mC]*dT*dA*d[5mC]*dA*dT*dA*dT*dT*dT*d[5mC]*kG*k[5mC]*kA) [compound 799923]” as the substance, how does the “% Inhibition” value [1] read?
A: 15%

Q: “798749 (antisense kG*kG*kA*d[5mC]*dT*d[5mC]*d[5mC]*dA*d[5mC]*dG*dG*d[5mC]*d[5mC]*kT*kG*kG) [compound 798749]” was tested. Which “% inhibition of SMAD7 mRNA expression” value [2] did it give?
A: 63%

Q: Which “% Inhibition” value [6] does the source give for “790463 (kA*kT*kG*dA*dA*dG*dA*dA*dG*dT*d[5mC]*dG*dG*kG*k[5mC]*kG; antisense) [compound 790463]” here?
A: 53%

Q: How did the “% inhibition of SMAD7 mRNA expression” value [2] turn out when “799023 (kT*kG*kG*dG*dA*d[5mC]*dT*dG*d[5mC]*dA*dA*dA*d[5mC]*k[5mC]*kT*k[5mC]; antisense) [compound 799023]” was run?
A: 42%

Q: “799835 (antisense kG*k[5mC]*kA*dG*dA*dT*dG*dT*dA*dT*dA*d[5mC]*dA*kA*kA*kT) [compound 799835]” was tested. Which “% inhibition of SMAD7 mRNA expression” value [3] did it give?
A: 70%

Q: For “798742 (antisense k[5mC]*kT*k[5mC]*d[5mC]*dT*dT*d[5mC]*dA*dG*dT*dT*dT*d[5mC]*kT*kT*kG) [compound 798742]”, which “% inhibition of SMAD7 mRNA expression” value [2] is on record?
A: 30%

Q: Which “% Inhibition” value [6] does the source give for “801138 (antisense kG*kT*kT*dA*dG*dG*dA*d[5mC]*d[5mC]*dT*dG*dG*dG*kA*kA*k[5mC]) [compound 801138]” here?
A: 6%

Q: How did the “% Inhibition” value [1] turn out when “799260 (antisense kT*kT*kG*d[5mC]*d[5mC]*d[5mC]*d[5mC]*dA*dA*dA*dA*d[5mC]*dT*k[5mC]*k[5mC]*kA) [compound 799260]” was run?
A: 27%

Q: For “799853 (k[5mC]*k[5mC]*kA*dA*dG*dT*dG*dT*d[5mC]*d[5mC]*dA*dT*d[5mC]*kA*kA*kG; antisense) [compound 799853]”, which “% Inhibition” value [7] is on record?
A: 42%

Q: For “830075 (kT*k[5mC]*kA*dG*dG*dG*dT*dG*dT*d[5mC]*dA*dG*d[5mC]*k[5mC]*k[5mC]*kA; antisense) [compound 830075]”, which “% Inhibition” value [1] is on record?
A: 39%

Q: How did the “% Inhibition” value [5] turn out when “829958 (kG*k[5mC]*kA*d[5mC]*d[5mC]*dT*dT*dG*dT*d[5mC]*dA*d[5mC]*d[5mC]*k[5mC]*kG*kT; antisense) [compound 829958]” was run?
A: 51%

Q: “829921 (antisense kT*k[5mC]*kA*dT*dA*d[5mC]*dG*dA*dG*dT*dG*dT*dA*kT*kG*kA) [compound 829921]” was tested. Which “% Inhibition” value [5] did it give?
A: 10%

Q: “799975 (kT*k[5mC]*kT*dT*d[5mC]*dA*dG*dG*dG*dA*d[5mC]*dA*dA*kG*k[5mC]*k[5mC]; antisense) [compound 799975]” was tested. Which “% Inhibition” value [7] did it give?
A: 38%

Q: Which “% Inhibition” value [4] does the source give for “799806 (antisense kG*kA*kG*dG*dA*dG*d[5mC]*dG*dA*dG*dA*dA*dG*kA*kG*kT) [compound 799806]” here?
A: 6%

Q: “799090 (antisense kG*kT*kG*dA*dG*d[5mC]*dA*dA*dT*dA*d[5mC]*dT*dG*kT*kG*kA) [compound 799090]” was tested. Which “% inhibition of SMAD7 mRNA expression” value [2] did it give?
A: 49%

Q: “798944 (antisense kA*kA*kA*d[5mC]*dG*dA*dG*dG*dA*d[5mC]*dG*dA*dG*kA*kA*kG) [compound 798944]” was tested. Which “% inhibition of SMAD7 mRNA expression” value [2] did it give?
A: 3%

Q: With “799180 (antisense kG*kA*kA*dA*dA*dA*dT*dA*dG*d[5mC]*dT*dT*dA*kT*kG*kT) [compound 799180]” as the substance, how does the “% Inhibition” value [2] read?
A: 20%

Q: Which “% Inhibition” value [4] does the source give for “799527 (kG*kT*k[5mC]*dA*dA*dA*dG*dG*dA*dG*dG*dT*dT*kT*kG*kG; antisense) [compound 799527]” here?
A: 4%

Q: How did the “% Inhibition” value [1] turn out when “799356 (kG*kA*kA*dA*dA*dA*dT*dT*d[5mC]*dA*d[5mC]*d[5mC]*dA*kA*kA*k[5mC]; antisense) [compound 799356]” was run?
A: 23%

Q: With “799208 (kT*kG*kA*dT*dG*d[5mC]*dT*dT*dA*dT*dA*dA*dA*kA*k[5mC]*kG; antisense) [compound 799208]” as the substance, how does the “% Inhibition” value [2] read?
A: 15%

Q: Which “% Inhibition” value [5] does the source give for “829997 (kG*kT*kT*dT*dG*dT*d[5mC]*dT*dT*dA*dG*d[5mC]*dT*kG*kT*kG; antisense) [compound 829997]” here?
A: 21%

Q: How did the “% Inhibition” value [4] turn out when “799727 (antisense kT*kG*kA*d[5mC]*dA*dG*dT*dA*dG*dG*d[5mC]*dA*dG*kG*k[5mC]*kA) [compound 799727]” was run?
A: 22%

Q: With “830186 (antisense kA*kG*kG*dT*d[5mC]*d[5mC]*dA*dG*dG*dG*dT*d[5mC]*d[5mC]*kT*k[5mC]*k[5mC]) [compound 830186]” as the substance, how does the “% Inhibition” value [1] read?
A: 50%

Q: With “800067 (antisense kA*kG*kG*dA*d[5mC]*d[5mC]*dT*dG*dG*dG*dA*dA*d[5mC]*k[5mC]*k[5mC]*kA) [compound 800067]” as the substance, how does the “% Inhibition” value [1] read?
A: 51%

Q: How did the “% inhibition of SMAD7 mRNA expression” value [3] turn out when “799286 (antisense kG*k[5mC]*kT*d[5mC]*dA*dG*dG*d[5mC]*dT*dT*d[5mC]*dA*d[5mC]*kT*kG*k[5mC]) [compound 799286]” was run?
A: 0%

Q: With “798791 (k[5mC]*kA*kT*d[5mC]*dG*dG*dG*dT*dA*dT*d[5mC]*dT*dG*kG*kA*kG; antisense) [compound 798791]” as the substance, how does the “% inhibition of SMAD7 mRNA expression” value [2] read?
A: 25%
